Data taken from patent US20200215099A1, “NON-ANTICOAGULANT SULFATED OR SULFONATED POLYSACCHARIDES” (Baxalta Incorporated, priority 2012, published 2020).
Values after ≈ are worked out from the molar mass of the structure shown. “Also recorded” adds a separate entry of the source. Like-named read-outs stand apart in the source and are kept apart here.

Experiments:
FVIII-inhibited plasma = experiment: Thrombin generation assay (CAT) in FVIII-inhibited plasma; format: biochemical, human; conditions: for EC50: half maximal thrombin peak
Experimental: The procoagulant activity of the sulfated polysaccharides was assessed by the Thrombin Generation Assay (TGA). The influence of each sulfated polysaccharide on thrombin generation was measured in duplicate via CAT in a Fluoroskan Ascent® reader (Thermo Labsystems, Helsinki, Finland; filters 390 nm excitation and 460 nm emission) following the slow cleavage of the fluorogenic substrate Z-Gly-GIy-Arg-AMC (Hemker H C. Pathophysiol Haemost Thromb (2003) 33(4):15). To each well of a 96 well microplate (Immulon 2HB, clear U-bottom; Thermo Electron) 80 μL of pre-warmed (37° C.) goat anti FVIII antibody treated human normal plasma pool was added. For triggering thrombin generation by tissue factor, 104 of PPP reagent containing a certain amount of recombinant human tissue factor (rTF) and phospholipid vesicles composed of phosphatidylserine, phosphatidylcholine and phosphatidylethanolamine (final concentration of 4 μM) (Thrombinoscope BV, Maastricht, The Netherlands) was added. For studying the procoagulant activity of sulfated polymers a final TF concentration of 1 pM was used to provide FVIII and TFPI sensitivity of the test system. Just prior to putting the plate into the pre-warmed (37° C.) reader, 10 µL of test or reference sample or calibrator compound was added. Thrombin generation was started by dispensing 204 of FluCa reagent (Thrombinoscope BV, Maastricht, The Netherlands) containing fluorogenic substrate and Hepes buffered CaCl2 (100 mM) into each well and fluorescence intensity was recorded at 37° C.
The parameters of the resulting thrombin generation curves were calculated using the Thrombinoscope™ software (Thrombinoscope BV, Maastricht, The Netherlands) and thrombin calibrator to correct for inner filter and substrate consumption effects (Hemker H C, Pathophysiol Haemost Thromb (2003) 33(4):15). With the thrombin calibrator as a reference, the molar concentration of thrombin in the test wells was calculated by the software. The thrombin amounts at the peak and peak times of each thrombin generation curve (peak thrombin, nM) were plotted against sulfated polysaccharide concentrations resulting in the procoagulant profile of these compounds. The thrombin generation assay results are illustrated in the figures appended hereto. From these plots half maximal effective concentrations (EC50) values are determined using a sigmoidal curve fit. The EC50 represents the concentration at which the half maximal thrombin peak is reached.

normal human plasma = experiment: Activated partial thromboplastin time assay (aPTT); format: biochemical; conditions: for Ratio aPTT/CAT: 50% increase clotting time / CAT EC50; for 50% Increase Clotting Time: concentration where clotting time is 50% increased over normal plasma control; for anticoagulant activity (in words): aPTT compared with procoagulant CAT concentration
Experimental: The aPTT assay was performed to study anticoagulant activities of NASP. In brief, 50 μL of thawed normal human plasma pool (George King Biomedical, Overland Park, Kans.) was mixed with 5 μL of NASP sample (0-60 μg/mL final plasma concentration). NASPs were diluted in imidazole buffer (3.4 g/L imidazole; 5.85 g/L NaCl, pH 7.4) containing 1% albumin (Baxter, Austria). After addition of 50 μL aPTT reagent (STA APTT, Roche) the samples were incubated for 4 min at 37° C. Clotting was initiated by 50 μL of 25 mM CaCl2 solution (Baxter, Austria) and recorded for up to 5 min. All pipetting steps and clotting time measurements were carried out with an ACL Pro Elite (Instrumentation Laboratory, Bedford, Mass.) instrument. Samples were run in duplicate.
For data analysis, clotting time is plotted against the NASP concentration. Concentrations where the clotting time is 50% increased over the normal plasma control are determined using a linear curve fit.

full-length TFPI = biological target: T1, full-length TFPI (Homo sapiens, UniProt P10646); experiment: Dilute prothrombin time assay with added TFPI (TFPI-dPT); format: biochemical; conditions: for EC50 TFPI-dPT: normal human plasma with rec. FL-TFPI; for reversal of the effect of rec. FL-TFPI (in words): normal human plasma
T1 construct: 0.5 μg/mL full-length TFPI (aa 1-276, constitutively produced by SKHep1); made in house; host or cells: SKHep1
T1 sequence (P10646 29-304): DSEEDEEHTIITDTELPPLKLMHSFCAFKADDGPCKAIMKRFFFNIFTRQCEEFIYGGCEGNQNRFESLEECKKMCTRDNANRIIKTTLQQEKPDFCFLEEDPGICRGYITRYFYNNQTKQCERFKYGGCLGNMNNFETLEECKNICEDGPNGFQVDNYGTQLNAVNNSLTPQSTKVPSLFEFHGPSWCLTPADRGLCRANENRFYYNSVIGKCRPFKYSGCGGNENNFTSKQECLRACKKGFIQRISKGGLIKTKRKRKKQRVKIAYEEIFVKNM
Experimental: A dilute prothrombin time assay with added TFPI (TFPI-dPT) was used to evaluate the TFPI-inhibiting effect of the different NASPs. Pooled normal human plasma (George King Biomedical, Overland Park, Kans.) was pre-incubated with 0.5 μg/mL full-length TFPI (aa 1-276, constitutively produced by SKHep1) and the respective NASP (0-5 μg/mL) for 15 min at RT. TF reagent TriniClot PT Excel S (Trinity Biotech, Wicklow, Ireland), diluted in Hepes-buffered saline 1:200 with 0.5% BSA was added to the plasma samples on an ACL Pro Elite hemostasis analyzer (Instrumentation Laboratory, Bedford, Mass.). Clotting was initiated with 25 mM CaCl2). The volume ratio of plasma:TF:CaCl2 was 1:1:1.
For data analysis, TFPI-dPT is plotted against the log concentration. Half maximal effective concentrations (EC50) values are determined using a sigmoidal curve fit.

[1] = tested on: FVIII-inhibited human whole blood; experiment: Rotation thromboelastometry (ROTEM); conditions: ROTEM, 0.044 pM TF
Experimental: NASPs (0.4-11 μg/mL) were studied in fresh citrated human whole blood by rotation thromboelastometry (ROTEM), an assay that allows continuous visco-elastic assessment of whole blood clot formation and firmness. Blood was incubated with anti-human FVIII plasma raised in goat (Baxter Bioscience, Austria) at 50 BU/mL to simulate hemophilic conditions. Clotting was triggered with 0.044 pM tissue factor (TF) (PRP reagent, Thrombinoscope BV) in the presence of 40 μg/mL CTI (Haematologic Technologies Inc., Essex Junction, Vt., USA). Then 300 μL of the pre-warmed (37° C.) FVIII-inhibited blood was recalcified with 20 μL of a 0.2 M CaCl2 solution. Clot formation was monitored using a ROTEM instrument (Pentapharm Munich, Germany) at 37° C. The final assay concentration of rTF was 44 fM. The ROTEM recording was started immediately and measured for at least 120 min. Each blood sample was analyzed in two independent measurements.
The thromboelastographic parameters of clotting time (CT), clot formation time (CFT) and maximum clot firmness (MCF) were recorded in accordance with the manufacturer's instructions. The first derivative of the thromboelastogram data is plotted to obtain a graph of velocity (mm/s) against time (s). From this graph, the maximum velocity (maxV) and the time at which the maximum velocity is reached (maxV-t) are also determined.

contact pathway = experiment: CAT in normal plasma with and without CTI; format: biochemical

Molecule: 6-carboxyicodextrin [reference compound]
- procoagulant activity (in words) (FVIII-inhibited plasma): not procoagulant

Molecule: OC[C@H]1O[C@@](CO)(O[C@H]2O[C@H](CO)[C@@H](O)[C@H](O)[C@H]2O)[C@@H](O[C@H]2O[C@H](CO)[C@@H](O)[C@H](O)[C@H]2O)[C@@H]1O [melezitose]
- EC50 (FVIII-inhibited plasma; 1 pM hTF, 4 μM PL): 13.5 µg/mL (≈ 26.8 µM)

Molecule: OC[C@H]1O[C@H](OC[C@H]2O[C@H](O[C@]3(CO)O[C@H](CO)[C@@H](O)[C@@H]3O)[C@H](O)[C@@H](O)[C@@H]2O)[C@H](O)[C@@H](O)[C@H]1O [raffinose]
- EC50 (FVIII-inhibited plasma; 1 pM hTF, 4 μM PL): 7.4 µg/mL (≈ 14.7 µM)

Molecule: Cellopentaose
- procoagulant activity (in words) (FVIII-inhibited plasma): substantial procoagulant activity
- EC50 (FVIII-inhibited plasma; 1 pM hTF, 4 μM PL): 1.9 µg/mL

Molecule: Cellotetraose
- EC50 (FVIII-inhibited plasma; 1 pM hTF, 4 μM PL): 4.8 µg/mL

Molecule: Cellotriose
- EC50 (FVIII-inhibited plasma; 1 pM hTF, 4 μM PL): 30.9 µg/mL

Molecule: Fucoidan [Fucoidan (Control), reference compound]
- Ratio aPTT/CAT (normal human plasma): 23.3
- 50% Increase Clotting Time (normal human plasma): 7.0 µg/mL
- EC50 (FVIII-inhibited plasma; 1 pM hTF, 4 μM PL): 0.3 µg/mL

Molecule: Maltopentaose
- procoagulant activity (in words) (FVIII-inhibited plasma): substantial procoagulant activity
- EC50 (FVIII-inhibited plasma; 1 pM hTF, 4 μM PL): about 2 μg/mL
- EC50 (FVIII-inhibited plasma; 1 pM hTF, 4 μM PL, listed as maltopentose): 2.1 µg/mL

Molecule: Maltotetraose
- procoagulant activity (in words) (FVIII-inhibited plasma): substantial procoagulant activity
- EC50 (FVIII-inhibited plasma; 1 pM hTF, 4 μM PL): 5.0 µg/mL

Molecule: Maltotriose
- EC50 (FVIII-inhibited plasma; 1 pM hTF, 4 μM PL): 20.6 µg/mL

Molecule: icodextrin [unsulfated icodextrin, reference compound]
- procoagulant activity (in words) (FVIII-inhibited plasma): not procoagulant

Molecule: stachyose
- procoagulant activity (in words) (FVIII-inhibited plasma): substantial procoagulant activity
- EC50 (FVIII-inhibited plasma; 1 pM hTF, 4 μM PL): 2.3 µg/mL

Molecule: sulfated 6-carboxy-icodextrin [6-carboxy-Icodextrin (unfractionated, batch 1)]
- EC50 TFPI-dPT (full-length TFPI): 0.26 µg/mL
- reversal of the effect of rec. FL-TFPI (in words) (full-length TFPI; listed as sulfated 6-carboxy-icodextrin (21.6 kDa, 10.6% S)): reverses the effect of rec. FL-TFPI in plasma
- Ratio aPTT/CAT (normal human plasma): 80.0
- anticoagulant activity (in words) (normal human plasma): non-anticoagulant at its optimal procoagulant concentration
- 50% Increase Clotting Time (normal human plasma): 3.2 µg/mL
- EC50 (FVIII-inhibited plasma; 1 pM hTF, 4 μM PL, listed as sulfated 6-carboxyicodextrin (21.6 kDa, 10.6% S)): 0.04 µg/mL
- procoagulant activity (in words) (FVIII-inhibited plasma; listed as sulfated 6-carboxyicodextrin (21.6 kDa, 10.6% S)): procoagulant at very low concentrations

Molecule: sulfated 6-carboxy-icodextrin [6-carboxy-Icodextrin (unfractionated, batch 2)]
- Ratio aPTT/CAT (normal human plasma): 57.0
- 50% Increase Clotting Time (normal human plasma): 4.0 µg/mL
- EC50 (FVIII-inhibited plasma; 1 pM hTF, 4 μM PL, listed as sulfated 6-carboxyicodextrin (35 kDa, 10.1% S)): 0.07 µg/mL
- procoagulant activity (in words) (FVIII-inhibited plasma; listed as sulfated 6-carboxyicodextrin (35 kDa, 10.1% S)): procoagulant at very low concentrations
- restoration of coagulation (in words) ([1]; listed as sulfated 6-carboxy-icodextrin (35 kDa; 10.1% S)): restores coagulation in human FVIII-inhibited blood

Molecule: sulfated maltopentaose [Maltopentaose (Baxter)]
- EC50 TFPI-dPT (full-length TFPI): 0.15 µg/mL
- reversal of the effect of rec. FL-TFPI (in words) (full-length TFPI; listed as sulfated maltopentaose (15% S)): reverses the effect of rec. FL-TFPI in plasma; also recorded: reverses the effect of recombinant Full Length-Tissue Factor Pathway Inhibitor
- Ratio aPTT/CAT (normal human plasma): 1.4
- anticoagulant activity (in words) (normal human plasma): become anticoagulant within their procoagulant window
- 50% Increase Clotting Time (normal human plasma): 3.3 µg/mL
- activation of the contact pathway (in words) (contact pathway): No activation of the contact pathway
- concentration activating the contact pathway (contact pathway; normal plasma, 1 pM hTF, 4 μM PL, ±41 μg/mL CTI): > 33 µg/mL
- procoagulant activity (in words) (FVIII-inhibited plasma): good procoagulant activity
- EC50 (FVIII-inhibited plasma; 1 pM hTF, 4 μM PL): 2.4 µg/mL
- restoration of coagulation (in words) [1]: restore coagulation parameters of FVIII-inhibited whole blood
- restoration of coagulation (in words) ([1]; listed as sulfated maltopentose (15% S)): restores coagulation to normal in FVIII-inhibited blood

Molecule: sulfated xylan [sulfated xylan (14.7% S, 22 kD)]
- procoagulant activity (in words) (FVIII-inhibited plasma): procoagulant at low concentrations
- procoagulant at (concentration) (FVIII-inhibited plasma; 37° C., 1 pM hTF, 4 μM PL): about 0.01 μg/mL
- EC50 (FVIII-inhibited plasma; 1 pM hTF, 4 μM PL): 0.1 µg/mL
- procoagulant activity (in words) (FVIII-inhibited plasma; listed as Sulfated xylan): good procoagulant activity in CAT assays at very low concentrations

Molecule: xylohexaose
- EC50 (FVIII-inhibited plasma; 1 pM hTF, 4 μM PL): 4.8 µg/mL

Molecule: α-cyclodextrin
- procoagulant activity (in words) (FVIII-inhibited plasma): substantial procoagulant activity
